# Measured values taken from paper PMC7582476, “Discovery of Novel Indoleamine 2,3-Dioxygenase 1 (IDO1) and Histone Deacetylase 1 (HDAC1) Dual Inhibitors Derived from the Natural Product Saprorthoquinone” (Molecules, 2020).
# Tests used:
# IDO1 = target: T1, IDO1 (Homo sapiens, UniProt P14902); assay: IDO1 enzymatic assay; format: biochemical; settings: for inhibition at 10 µM: Tables 2 and 3, read-out: IDO1 % Inhibition at 10 μM (converted)
# T1 construct: No. 20160706
# Description: (1) Prepare 100× compound of the final desired highest inhibitor concentration in reaction by 100% DMSO. For example, if compounds test at 10 μM, then prepare 1 mM of compound solution in this step. Then dilute compound with DMSO in 3-fold mode to obtain different concentrations. Mark as source plate. (2) Add 100 μL of 100% DMSO to column 1 and column 12 for background control and no compound high control respectively.
# Transfer 2 μL of each well from the 96-well source plate to a 96-well assay plate.
# • (3) Enzyme Reaction • Prepare 2× enzyme solution. Add IDO-1 in assay buffer. • Prepare 2× substrate solution. Add L-tryptophan, ascorbate, methylene blue, catalase in the assay buffer. • Assay plate already contains 2 μL of compound in 100% DMSO. • Transfer 2× enzyme solution to the assay plate. Add 100 μL of 2× enzyme solution to each well of the 96-well assay plate. • Incubate at room temperature for 10 min. • Transfer […] to each well of the 96-well assay plate. • Read OD321 kinetically by Spectramax (Molecular Devices, LLC, San Jose, CA, USA). • (4) Curve Fitting • Copy data from Spectramax program. Percent inhibition = (max-conversion)/(max − min) × 100. “max” stands for high control; “min” stands for low control. • Fit the data in XL-Fit to obtain IC50 values. Equation used is: Y = Bottom + (Top − Bottom)/(1 + 10^((LogIC50 − X) × Hill Slope)
# HDAC1 = target: T2, HDAC1 (Homo sapiens, UniProt Q13547); assay: HDAC enzymatic assay; format: biochemical; settings: mean ± SD of at least two independent assays
# T2 construct: purchased BPS Bioscience Inc. 50051
# T2 sequence (Q13547 whole entry): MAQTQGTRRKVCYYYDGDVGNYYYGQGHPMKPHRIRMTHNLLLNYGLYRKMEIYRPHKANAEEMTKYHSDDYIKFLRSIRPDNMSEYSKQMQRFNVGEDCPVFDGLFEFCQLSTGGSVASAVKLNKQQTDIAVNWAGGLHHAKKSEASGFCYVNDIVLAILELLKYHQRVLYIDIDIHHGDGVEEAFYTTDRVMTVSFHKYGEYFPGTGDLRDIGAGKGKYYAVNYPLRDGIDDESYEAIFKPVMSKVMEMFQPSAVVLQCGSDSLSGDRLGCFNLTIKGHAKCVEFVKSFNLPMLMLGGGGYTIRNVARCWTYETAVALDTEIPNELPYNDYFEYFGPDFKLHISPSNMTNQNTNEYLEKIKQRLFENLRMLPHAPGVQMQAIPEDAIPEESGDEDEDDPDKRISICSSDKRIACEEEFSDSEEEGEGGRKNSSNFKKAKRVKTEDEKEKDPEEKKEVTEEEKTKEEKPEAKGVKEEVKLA
# Description: • (1) Prepare 1× assay buffer (modified Tris Buffer). • (2) Compound serial dilution: Transfer compounds to assay plate by Echo in 100% DMSO. The final fraction of DMSO is 1%. • (3) Prepare enzyme solution in 1× assay buffer. • (4) Add trypsin and Ac-peptide substrate in 1× assay buffer to make the substrate solution. • (5) Transfer 15 μL of enzyme solution to assay plate or for low control transfer 15 μL of 1× assay buffer. • (6) Incubate at room temperature for 15 min. • (7) Add 10 μL of substrate solution to each well to start reaction. • (8) Incubate at room temperature for 60 min. • (9) Read the plate on Synergy MX with excitation at 355 nm and emission at 460 nm. • (10) Curve fitting: Fit the data in Excel to obtain inhibition values using Equation (1).
# Inh% = (Max − Signal)/(Max − Min) × 100(1)
# Fit the data in XL-Fit to obtain IC50 values using Equation (2); Y = Bottom + (Top − Bottom)/(1 + 10^((LogIC50 − X) × Hill Slope))(2)
# Y is %inhibition and X is compound concentration.
# A549 cell line = assay: Anti-proliferation assay in A549 cell line (CellTiter-Glo); format: cell-based; settings: Homo sapiens; A549 cells, 48 h, CTG assay
# Description: Cell viability was measured by the CellTiter-Glo Luminescent (CTG) assay. A549 cells (ATCC, Cat. No.CCL-185) were seeded (2000 cells/well) in 96-well plates and cells were left to incubate at 37 °C for 24 h. After 24 h, prepare compounds with 5-fold dilution in DMSO to the compound plate (200-fold of the final concentration) and transfer 5 μL from the compound plate to 95 μL intermediate medium in the intermediate plate (10-fold of the final concentration). Then transfer 10 μL from the intermediate plate to the cell plates. The final DMSO is 0.5%. After continuing to incubate for 48 h, add 50 μL CTG reagent to each well and read luminescence according to CTG product manual.
# T1 sequence (P14902 whole entry): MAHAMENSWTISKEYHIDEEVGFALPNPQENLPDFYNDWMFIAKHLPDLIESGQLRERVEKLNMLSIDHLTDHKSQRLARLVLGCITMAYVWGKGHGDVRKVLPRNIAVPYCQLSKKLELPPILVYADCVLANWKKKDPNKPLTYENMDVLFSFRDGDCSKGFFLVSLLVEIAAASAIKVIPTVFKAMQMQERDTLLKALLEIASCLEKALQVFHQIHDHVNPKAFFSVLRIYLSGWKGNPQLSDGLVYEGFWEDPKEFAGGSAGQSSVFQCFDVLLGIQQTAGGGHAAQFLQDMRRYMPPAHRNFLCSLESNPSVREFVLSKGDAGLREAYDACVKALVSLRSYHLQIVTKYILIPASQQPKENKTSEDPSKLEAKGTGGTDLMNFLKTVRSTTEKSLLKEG
structure (smiles),measurement,setting,value
"Cc1ccc2c(c1CCC(=O)NCCCCCC(=O)Nc1ccccc1N)C(=O)C(=O)C(C(C)C)=C2 [Compound 33d, N-(2-Aminophenyl)-6-(3-(6-isopropyl-2-methyl-7,8-dioxo-7,8-dihydronaphthalen-1-yl)propanamido) hexanamide]",inhibition at 10 µM,IDO1,82%
same,IC50,IDO1; mean ± SD of at least two independent assays,0.71 ± 0.03 µM
same,IC50,HDAC1,0.46 ± 0.07 µM
same,IC50,A549 cell line,> 20 µM
"Cc1ccc2c(c1CCC(=O)Nc1cc(F)ccc1N)C(=O)C(=O)C(C(C)C)=C2 [Compound 27b, N-(2-Amino-5-fluorophenyl)-3-(6-isopropyl-2-methyl-7,8-dioxo-7,8-dihydronaphthalen-1-yl)propanamide]",inhibition at 10 µM,IDO1,84%
same,IC50,HDAC1,> 100 µM
same,IC50,A549 cell line,9.51 µM
"Cc1ccc2c(c1CCC(=O)NCCC(=O)Nc1ccccc1N)C(=O)C(=O)C(C(C)C)=C2 [Compound 33a, N-(2-aminophenyl)-3-(3-(6-isopropyl-2-methyl-7,8-dioxo-7,8-dihydronaphthalen-1-yl)propanamido)-propanamide]",inhibition at 10 µM,IDO1,89%
same,IC50,HDAC1,> 100 µM
same,IC50,A549 cell line,> 20 µM
